Data on 4 molecules can be found in PMC6689975, “Novel Cell Wall Antifungals Reveal a Special Synergistic Activity in pbr1 Mutants Resistant to the Glucan Synthesis Antifungals Papulacandins and Echinocandins” (Frontiers in Microbiology, 2019).

Test in all cases: microbe, parasite or virus in culture
For assay [1], the system named is T1, Schizosaccharomyces pombe S. p.^a (wild-type 972 h-).
T1 construct: 972 h-
Also noted: species or system yeast; micro tube dilution MIC in YES (± 1.2 M sorbitol), complete growth inhibition by turbidity. Particulars: 48 h. The procedure: (§1) Standard YEPD (Yeast Extract, Peptone, Dextrose) ([Sherman, 1990]), YEPD+S (YEPD with 1.2M sorbitol), YES (Yeast Extract, Dextrose and Supplements of Adenine, Histidine, Leucine, Uracil and Lysine) ([Alfa et al., 1993]) and YES+S (YES with 1.2 M sorbitol) ([Ribas et al., 1991]; [Ishiguro et al., 1997]), media were used for determination of MIC values of the tested compounds. A stock solution of 10 mg/ml of each tested compounds was prepared in DMSO and serial dilutions in DMSO were prepared. The final concentration of DMSO was 2% in the YEPD medium. […] The serial dilutions of compounds were dispensed into test tubes with 1 ml of YEPD or YEPD+S to make final concentrations of 200, 100, 50, 25, 12.5, 6.26, 3.125, 1.6, 0.8 and 0.4 μg/ml. The tested yeast strains were previously grown in YEPD, YEPD+S, YES or YES+S agar plates at 30°C for 48 h. Micro-culture assays of large numbers of samples were analyzed as described) ([Martins et al., 2011]). Essentially early log-phase cells were grown in YEPD, YEPD+S, YES or YES+S (1.2 M sorbitol) medium at 30°C, and diluted to cell density of 4 X 10^6 cells/ml in YEPD, YEPD+S, YES or YES+S medium and aliquots of 100 μl were dispensed into each small test tube (3 ml test tube size). Then, another 100 μl of YEPD, YEPD+S, YES or YES+S with the corresponding dilution of each compound at 2X concentration (4% DMSO) was added. The final volume was 200 μl, with the cells diluted to of 2 X 10^6 cells/ml and each compound diluted to 1X final concentration, containing increasing concentrations of antifungal (0, 1, 2, 5, 10, 20, 50, 100 and 200 μg/ml) or an equivalent volume of solvent (2% DMSO). The cells were grown at 30°C in an orbital roller and turbidity was analyzed after 24 and 48 h of incubation. The MIC was determined as the minimal concentration of tested compound that produced complete cell growth inhibition and kept the medium clear. The MIC values were calculated from at least three independent experiments.

Assay [2] deals with T2, Saccharomyces cerevisiae S. c.^d (wild-type CVX12-3A).
T2 construct: CVX12-3A
Set-up: species or system yeast; micro tube dilution MIC in YES (± 1.2 M sorbitol), complete growth inhibition by turbidity. Conditions: 48 h. The procedure:
as §1

In assay [3] the test system is Candida albicans C. a.^g (Table 6). Set-up: species or system yeast; micro tube dilution MIC in YES (± 1.2 M sorbitol), complete growth inhibition by turbidity. Conditions: 48 h. The protocol: as §1
Assay [4] has as its system Candida albicans C. a.^f (Tables 5, 6). Set-up: species or system yeast; micro tube dilution MIC in YES (± 1.2 M sorbitol), complete growth inhibition by turbidity. Particulars: 48 h. The procedure:
as §1

The test system of assay [5] is T3, S. cerevisiae wild-type CVX12-3A.
T3 construct: CVX12-3A
Also noted: species or system whole yeast cells; micro-culture broth dilution MIC in YES at 30 C, turbidity, complete growth inhibition. Particulars: Saccharomyces cerevisiae; YES medium. The protocol:
as §1, with “experiments. Next, the first generation of isochromanones (1E-16E) was also screened in YES medium (Table 5) and exerted a weaker antifungal potency than in YEPD medium and also than the second family of isochromanones in YES medium (17E-30E) (Table 6). The strains are partly different from the previously mentioned ones (Tables 5, 6) analyzing two wild type C. albicans strains because they behaved similarly in YEPD. It is remarkable that there was no effect against either the C. albicans, the S. cerevisiae, or the S. pombe wild-type strains, except with 30E.” for “experiments.”

Assay [6] concerns T4, S. pombe wild-type 972 h-.
T4 construct: 972 h-
Also noted: species or system whole yeast cells; micro-culture broth dilution MIC in YES at 30 C, turbidity, complete growth inhibition. Conditions: Schizosaccharomyces pombe; YES medium. The protocol:
as §1, with “experiments. Next, the first generation of isochromanones (1E-16E) was also screened in YES medium (Table 5) and exerted a weaker antifungal potency than in YEPD medium and also than the second family of isochromanones in YES medium (17E-30E) (Table 6). The strains are partly different from the previously mentioned ones (Tables 5, 6) analyzing two wild type C. albicans strains because they behaved similarly in YEPD. It is remarkable that there was no effect against either the C. albicans, the S. cerevisiae, or the S. pombe wild-type strains, except with 30E.” for “experiments.”

The next assay relates to C. albicans wild-type. Set-up: species or system whole yeast cells; micro-culture broth dilution MIC in YES at 30 C, turbidity, complete growth inhibition. Particulars: Candida albicans, YES medium. The protocol:
as §1, with “experiments. Next, the first generation of isochromanones (1E-16E) was also screened in YES medium (Table 5) and exerted a weaker antifungal potency than in YEPD medium and also than the second family of isochromanones in YES medium (17E-30E) (Table 6). The strains are partly different from the previously mentioned ones (Tables 5, 6) analyzing two wild type C. albicans strains because they behaved similarly in YEPD. It is remarkable that there was no effect against either the C. albicans, the S. cerevisiae, or the S. pombe wild-type strains, except with 30E.” for “experiments.”

Assay [7] deals with T1, Schizosaccharomyces pombe S. p.^a (wild-type 972 h-). Also noted: species or system yeast; tube dilution MIC in YEPD (± 1.2 M sorbitol), complete growth inhibition by turbidity. Conditions: 48 h, read-out: MIC. The procedure:
as §1, with “h. For inoculation of YEPD or YEPD+S macro test tubes a suspension of tested fungus was produced with 10^5 cfu/ml (cfu - colony forming unit). 10 μl of suspension was used for inoculation of each tube. After 48 h incubation at 30°C the tubes were checked. The MIC value is the lowest concentration of the tested compound that could inhibit the fungal growth and the medium remained clear. From each tube 10 μl culture was plated on YEPD agar medium to check the contamination. The MIC tests were carried out in three parallels.” for “h.”

Assay [8] has as its system T2, Saccharomyces cerevisiae S. c.^d (wild-type CVX12-3A). Set-up: species or system yeast; tube dilution MIC in YEPD (± 1.2 M sorbitol), complete growth inhibition by turbidity. Particulars: 48 h, read-out: MIC. The protocol:
as §1, with “h. For inoculation of YEPD or YEPD+S macro test tubes a suspension of tested fungus was produced with 10^5 cfu/ml (cfu - colony forming unit). 10 μl of suspension was used for inoculation of each tube. After 48 h incubation at 30°C the tubes were checked. The MIC value is the lowest concentration of the tested compound that could inhibit the fungal growth and the medium remained clear. From each tube 10 μl culture was plated on YEPD agar medium to check the contamination. The MIC tests were carried out in three parallels.” for “h.”

The test system of assay [9] is Candida albicans C. a.^g (Table 4). Set-up: species or system yeast; tube dilution MIC in YEPD (± 1.2 M sorbitol), complete growth inhibition by turbidity. Conditions: 48 h, read-out: MIC. The procedure: as §1, with “h. For inoculation of YEPD or YEPD+S macro test tubes a suspension of tested fungus was produced with 10^5 cfu/ml (cfu - colony forming unit). 10 μl of suspension was used for inoculation of each tube. After 48 h incubation at 30°C the tubes were checked. The MIC value is the lowest concentration of the tested compound that could inhibit the fungal growth and the medium remained clear. From each tube 10 μl culture was plated on YEPD agar medium to check the contamination. The MIC tests were carried out in three parallels.” for “h.”

The test system of assay [10] is Candida albicans C. a.^h (Table 4). Also noted: species or system yeast; tube dilution MIC in YEPD (± 1.2 M sorbitol), complete growth inhibition by turbidity. Conditions: 48 h, read-out: MIC. The procedure:
as §1, with “h. For inoculation of YEPD or YEPD+S macro test tubes a suspension of tested fungus was produced with 10^5 cfu/ml (cfu - colony forming unit). 10 μl of suspension was used for inoculation of each tube. After 48 h incubation at 30°C the tubes were checked. The MIC value is the lowest concentration of the tested compound that could inhibit the fungal growth and the medium remained clear. From each tube 10 μl culture was plated on YEPD agar medium to check the contamination. The MIC tests were carried out in three parallels.” for “h.”

In assay [11] the test system is Candida albicans C. a.^f (Table 4). Also noted: species or system yeast; tube dilution MIC in YEPD (± 1.2 M sorbitol), complete growth inhibition by turbidity. Particulars: 48 h, read-out: MIC. The procedure: as §1, with “h. For inoculation of YEPD or YEPD+S macro test tubes a suspension of tested fungus was produced with 10^5 cfu/ml (cfu - colony forming unit). 10 μl of suspension was used for inoculation of each tube. After 48 h incubation at 30°C the tubes were checked. The MIC value is the lowest concentration of the tested compound that could inhibit the fungal growth and the medium remained clear. From each tube 10 μl culture was plated on YEPD agar medium to check the contamination. The MIC tests were carried out in three parallels.” for “h.”

In brackets after ≈: the same amount, converted by molar mass. Read-outs that look alike come from different tables or passages of the source.

Take `Cc1ccc(/C=C2/C(=O)OCc3ccccc32)cc1` [19E]: the MIC in assay [1] (YES + 1.2 M sorbitol), in assay [2] (YES + 1.2 M sorbitol), in assay [3] (YES + 1.2 M sorbitol), in assay [4] (YES + 1.2 M sorbitol), in assay [5] and in assay [6] was over 200 µg/mL throughout. Also, the MIC in the assay on C. albicans wild-type (C. albicans strain f) and against C. albicans wild-type (C. albicans strain g) was over 200 µg/mL in each case.

Turning to `COc1ccc(/C=C2/C(=O)OCc3ccccc32)cc1` [21E], the MIC in [1] (YES + 1.2 M sorbitol), in assay [2] (YES + 1.2 M sorbitol), in [3] (YES + 1.2 M sorbitol), in assay [4] (YES + 1.2 M sorbitol), in assay [5] and in assay [6] was over 200 µg/mL each time. For the same molecule, the MIC in the assay with C. albicans wild-type (C. albicans strain f) and in the assay on C. albicans wild-type (C. albicans strain g) was over 200 µg/mL throughout.

Regarding `O=C1OCc2ccccc2/C1=C\c1ccc2c(c1)OCO2` [27E], the MIC in [1] (YES + 1.2 M sorbitol), in assay [2] (YES + 1.2 M sorbitol), in assay [3] (YES + 1.2 M sorbitol), in [4] (YES + 1.2 M sorbitol), in [5] and in assay [6] was over 200 µg/mL in each case. In addition, the MIC with C. albicans wild-type (C. albicans strain f) and against C. albicans wild-type (C. albicans strain g) was over 200 µg/mL in each case.

Take `C[C@@H]1[C@H](O)[C@@H](C)/C=C/C=C/C=C/C=C/C=C/C=C/C=C/[C@H](O[C@@H]2O[C@H](C)[C@@H](O)[C@H](N)[C@@H]2O)C[C@@H]2O[C@](O)(C[C@@H](O)C[C@@H](O)[C@H](O)CC[C@@H](O)C[C@@H](O)CC(=O)O[C@H]1C)C[C@H](O)[C@H]2C(=O)O` [amphotericin B]: the MIC is under 0.1 µg/mL in assay [1] (read-out: MIC); 0.2 µg/mL (≈ 0.216 µM) in assay [2] (read-out: MIC); 0.4 µg/mL (≈ 0.433 µM) in assay [3] (read-out: MIC); 0.8 µg/mL (≈ 0.866 µM) in [4] (read-out: MIC); under 0.1 µg/mL in [7]; 0.2 µg/mL (≈ 0.216 µM) in assay [8]. The MIC in assay [9] was 0.8 µg/mL (≈ 0.866 µM); in [10], 0.4 µg/mL (≈ 0.433 µM); in assay [11] it was 0.4 µg/mL (≈ 0.433 µM).
